Test results as given in patent publication US10562898B2, “Substituted benzenesulfonamides as inhibitors of alpha-4 beta-7 integrin activity” (EA PHARMA CO., LTD., priority 2016, dated 2020).

Biological target: T1, α4β7 integrin (Homo sapiens, UniProt P13612+P26010)
T1 construct: a cell line RPMI-8866, which is known to express α4β7 integrin; endogenous in cells; host or cells: RPMI-8866 (human B cell line)
T1 sequence (P13612 34-1032): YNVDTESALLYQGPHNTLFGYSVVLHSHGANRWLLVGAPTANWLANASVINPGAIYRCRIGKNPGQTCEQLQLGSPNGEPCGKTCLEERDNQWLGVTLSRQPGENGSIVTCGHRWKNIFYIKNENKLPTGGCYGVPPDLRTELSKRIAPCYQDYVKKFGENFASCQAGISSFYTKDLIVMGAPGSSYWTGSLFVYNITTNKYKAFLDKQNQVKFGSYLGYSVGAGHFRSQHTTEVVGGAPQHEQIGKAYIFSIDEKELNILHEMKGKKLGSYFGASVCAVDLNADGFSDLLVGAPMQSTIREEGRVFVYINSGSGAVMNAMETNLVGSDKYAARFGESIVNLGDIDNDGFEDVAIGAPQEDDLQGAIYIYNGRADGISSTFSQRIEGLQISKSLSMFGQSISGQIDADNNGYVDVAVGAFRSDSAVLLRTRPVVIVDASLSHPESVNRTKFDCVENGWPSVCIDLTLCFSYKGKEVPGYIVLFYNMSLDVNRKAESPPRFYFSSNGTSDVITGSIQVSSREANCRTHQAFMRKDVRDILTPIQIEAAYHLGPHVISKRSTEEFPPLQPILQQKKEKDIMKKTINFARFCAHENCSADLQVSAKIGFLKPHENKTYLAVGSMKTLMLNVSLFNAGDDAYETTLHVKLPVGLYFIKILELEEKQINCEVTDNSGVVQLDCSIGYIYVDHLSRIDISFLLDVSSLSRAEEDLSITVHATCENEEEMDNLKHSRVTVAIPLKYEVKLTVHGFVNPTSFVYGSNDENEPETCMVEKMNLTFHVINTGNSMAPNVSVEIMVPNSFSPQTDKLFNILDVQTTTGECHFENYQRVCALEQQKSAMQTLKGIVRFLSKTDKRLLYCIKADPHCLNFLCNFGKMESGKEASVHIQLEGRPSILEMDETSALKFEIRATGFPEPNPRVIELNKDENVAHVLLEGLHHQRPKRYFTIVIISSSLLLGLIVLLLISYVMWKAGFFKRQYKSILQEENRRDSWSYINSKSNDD
T1 sequence (P26010 20-798): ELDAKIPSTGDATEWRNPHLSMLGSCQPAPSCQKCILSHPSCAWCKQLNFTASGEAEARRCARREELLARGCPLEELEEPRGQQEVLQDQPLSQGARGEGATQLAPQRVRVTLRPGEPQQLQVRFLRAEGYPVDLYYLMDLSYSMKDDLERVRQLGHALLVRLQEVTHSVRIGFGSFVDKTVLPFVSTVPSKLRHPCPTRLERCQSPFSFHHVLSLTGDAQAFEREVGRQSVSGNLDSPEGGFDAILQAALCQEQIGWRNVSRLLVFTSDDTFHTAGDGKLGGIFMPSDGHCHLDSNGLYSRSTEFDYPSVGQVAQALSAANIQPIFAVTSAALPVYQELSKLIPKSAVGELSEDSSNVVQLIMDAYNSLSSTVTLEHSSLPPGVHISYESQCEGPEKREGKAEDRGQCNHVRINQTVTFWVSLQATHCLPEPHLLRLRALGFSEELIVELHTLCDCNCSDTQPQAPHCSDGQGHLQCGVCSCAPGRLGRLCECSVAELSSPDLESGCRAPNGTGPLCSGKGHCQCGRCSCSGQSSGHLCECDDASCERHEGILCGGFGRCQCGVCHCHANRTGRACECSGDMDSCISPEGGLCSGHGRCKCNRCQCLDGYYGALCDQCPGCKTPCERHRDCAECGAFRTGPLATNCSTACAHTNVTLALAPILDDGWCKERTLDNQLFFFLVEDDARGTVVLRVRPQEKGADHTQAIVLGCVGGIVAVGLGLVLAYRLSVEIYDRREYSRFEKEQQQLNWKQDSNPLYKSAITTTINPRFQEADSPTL
Experiment: MAdCAM-1/α4β7 integrin binding inhibitory activity evaluation test in presence of serum
Assay type: cell-based
Details: RPMI-8866 cells, recombinant mouse MAdCAM-1/Fc, 50% human serum; read-out: α4β7 Serum Added IC50
Protocol: (3) MAdCAM-1/α4β7 Integrin Binding Inhibitory Activity Evaluation Test in Presence of Serum (1)
Each test substance was measured in terms of an ability to inhibit the MAdCAM-1 binding of a human B cell line, namely, a cell line RPMI-8866, which is known to express α4β7 integrin.
A solution of recombinant mouse MAdCAM-1/Fc (R&D Systems, Inc.) (1 μg/mL) diluted with a buffer A (carbonate buffer, pH 9.6) was added in an amount of 50 μL/well to a 96-well microtiter plate, followed by incubation at 4° C. overnight. After the plate was washed with PBS once, 150 μL/well of Block Ace (Snow Brand Milk Products Co., Ltd.) was added, followed by incubation at room temperature for 2 hours. After removal, the plate was washed with PBS once.
Then, 100 μL of the RPMI-8866 cells (2×10^6 cells/mL) and 100 of the test substance at each of various concentrations diluted with a binding buffer (DMEM containing 40 mM HEPES, 0.2% BSA, and 4 mM MnCl2) were added to the plate coated with the MAdCAM-1/Fc (5×10^5 cells/well) such that 50% human serum was contained at the final concentration. Then, incubation was allowed to proceed at 30° C. for 15 to 60 minutes. After the cells were bound to the wells, the plate was washed with PBS to remove unbound cells. A buffer C (PBS containing 1.5% Triton X-100) was added in an amount 50 μL/well to the plate to lyse the bound RPMI-8866 cells. After 30 μL of a substrate buffer (Promega, CytoTox 96 Non-Radioactive Cytotoxicity Assay) was added to 30 μL of the cell lysate, a reaction was allowed to proceed at room temperature in the dark for 30 minutes. After 30 μL of a stop solution (Promega, CytoTox 96 Non-Radioactive Cytotoxicity Assay) was added to each, and then an absorbance at 490 nm was measured using a plate reader. The absorbance obtained here represents a detection result of an activity of lactate dehydrogenase (LDH) eluted in the supernatant of each well, that is, the absorbance is proportional to the number of RPMI-8866 cells bound to the MAdCAM-1 and thus remaining on the plate. The test was performed in duplicate. Provided that the absorbance of the well containing no test substance was 100%, a cell binding rate with the test substance at each of the various concentrations was figured out, and a concentration IC50 which brought about 50% binding inhibition was calculated.

Row | SMILES | IC50
1 | CC(=O)Nc1ccc(S(=O)(=O)Nc2cc(F)c(C(=O)N[C@@H](Cc3ccc(-n4c(=O)c5ccncc5n(C)c4=O)cc3)C(=O)O)cc2F)cc1 [Compound A2] | 36 nM
2 | Cc1c(C)n(C)c(=O)n(-c2ccc(C[C@H](NC(=O)c3cc(F)c(NS(=O)(=O)c4ccc(NC(=O)C(C)(C)C)cn4)cc3F)C(=O)O)cn2)c1=O [Compound A32] | 3 nM
3 | Cn1c(=O)n(-c2ccc(C[C@H](NC(=O)c3cc(F)c(NS(=O)(=O)c4ccc(NC(=O)C(C)(C)C)c(F)c4)cc3F)C(=O)O)cc2)c(=O)c2ccncc21 [Compound A12] | 61 nM
4 | Cn1c(=O)n(-c2ccc(C[C@H](NC(=O)c3cc(F)c(NS(=O)(=O)c4ccc(NC(=O)C5CCOCC5)cc4)cc3F)C(=O)O)cc2)c(=O)c2ccncc21 [Compound A14] | 12 nM
5 | Cn1c(C(F)(F)F)cc(=O)n(-c2ccc(C[C@H](NC(=O)c3cc(F)c(NS(=O)(=O)c4ccc(NC(=O)C(C)(C)C)cc4)cc3F)C(=O)O)cn2)c1=O [Compound A66] | 25 nM
6 | Cc1cn(C)c(=O)n(-c2ccc(C[C@H](NC(=O)c3cc(F)c(NS(=O)(=O)c4cc5cc(NC(=O)C(C)(C)C)ccc5[nH]4)cc3F)C(=O)O)cn2)c1=O [Compound A76] | 14 nM
7 | Cc1cn(C)c(=O)n(-c2ccc(C[C@H](NC(=O)c3cc(F)c(NS(=O)(=O)c4ccc(NC(=O)C5(C(F)(F)F)CC5)cc4)cc3F)C(=O)O)cn2)c1=O [Compound A56] | 19 nM
8 | Cc1c(C)n(C(C)C)c(=O)n(-c2ccc(C[C@H](NC(=O)c3cc(F)c(NS(=O)(=O)c4ccc(NC(=O)C(C)(C)C)cc4)cc3F)C(=O)O)cc2)c1=O [Compound A48] | 22 nM
9 | Cc1cn(C)c(=O)n(-c2ccc(C[C@H](NC(=O)c3cc(F)c(NS(=O)(=O)c4ccc(NC(=O)C5(C#N)CC5)cc4)cc3F)C(=O)O)cn2)c1=O [Compound A60] | 52 nM
10 | Cn1ccc(=O)n(-c2ccc(C[C@H](NC(=O)c3cc(F)c(NS(=O)(=O)c4ccc(NC(=O)C5(C(F)(F)F)CC5)cc4)cc3F)C(=O)O)cn2)c1=O [Compound A55] | 33 nM
11 | Cc1cn(C)c(=O)n(-c2ccc(C[C@H](NC(=O)c3cc(F)c(NS(=O)(=O)c4ccc5c(NC(=O)C(C)(C)C)c[nH]c5c4)cc3F)C(=O)O)cn2)c1=O [Compound A74] | 50 nM
12 | Cc1c(C)n(C)c(=O)n(-c2ccc(C[C@H](NC(=O)c3cc(F)c(NS(=O)(=O)c4ccc(NC(=O)C5CCOCC5)cc4)cc3F)C(=O)O)cc2)c1=O [Compound A15] | 14 nM
13 | CCC(CC)C(=O)Nc1ccc(S(=O)(=O)Nc2cc(F)c(C(=O)N[C@@H](Cc3ccc(-n4c(=O)c(C)c(C)n(C)c4=O)cc3)C(=O)O)cc2F)cc1 [Compound A4] | 16 nM
14 | Cc1cn(C)c(=O)n(-c2ccc(C[C@H](NC(=O)c3cc(F)c(NS(=O)(=O)c4ccc(NC(=O)C(C)(C)C)cc4)cc3F)C(=O)O)cc2)c1=O [Compound A37] | 6.6 nM
15 | Cc1c(CO)c(=O)n(-c2ccc(C[C@H](NC(=O)c3cc(F)c(NS(=O)(=O)c4ccc(NC(=O)C(C)(C)C)cc4)cc3F)C(=O)O)cc2)c(=O)n1C [Compound A51] | 13 nM
16 | Cn1c(=O)n(-c2ccc(C[C@H](NC(=O)c3cc(F)c(NS(=O)(=O)c4ccc(NC(=O)C(C)(C)CO)cc4)cc3F)C(=O)O)cc2)c(=O)c2ccncc21 [Compound A18] | 9 nM

Continued by falling IC50, values first:

Row | IC50 | SMILES
17 | 67 nM | COC1(C(=O)Nc2ccc(S(=O)(=O)Nc3cc(F)c(C(=O)N[C@@H](Cc4ccc(-n5c(=O)c(C)c(C)n(C)c5=O)cc4)C(=O)O)cc3F)cc2)CC1 [Compound A17]
18 | 38 nM | Cc1c(C)n(C)c(=O)n(-c2ccc(C[C@H](NC(=O)c3cc(F)c(NS(=O)(=O)c4cc(NC(=O)C(C)(C)C)cs4)cc3F)C(=O)O)cc2)c1=O [Compound A11]
19 | 33 nM | Cn1ccc(=O)n(-c2ccc(C[C@H](NC(=O)c3cc(F)c(NS(=O)(=O)c4ccc(NC(=O)C(C)(C)C)cc4)cc3F)C(=O)O)nc2)c1=O [Compound A70]
20 | 25 nM | Cc1cn(C)c(=O)n(-c2ccc(C[C@H](NC(=O)c3cc(F)c(NS(=O)(=O)c4c[nH]c5cc(NC(=O)C(C)(C)C)ccc45)cc3F)C(=O)O)cn2)c1=O [Compound A77]
21 | 20 nM | CN1C(=O)N(c2ccc(S(=O)(=O)Nc3cc(F)c(C(=O)N[C@@H](Cc4ccc(-n5c(=O)c6ccncc6n(C)c5=O)nc4)C(=O)O)cc3F)cc2)C(=O)C1(C)C [Compound A38]
22 | 18 nM | COc1cc2c(=O)n(-c3ccc(C[C@H](NC(=O)c4cc(F)c(NS(=O)(=O)c5ccc(NC(=O)C(C)(C)C)cc5)cc4F)C(=O)O)cc3)c(=O)n(C)c2cn1 [Compound A36]
23 | 17 nM | Cc1c(C)n(C)c(=O)n(-c2ccc(C[C@H](NC(=O)c3cc(F)c(NS(=O)(=O)c4ccc(NC(=O)C5(C(F)(F)F)CC5)cc4)cc3F)C(=O)O)cc2)c1=O [Compound A20]
24 | 11 nM | Cn1ccc(=O)n(-c2ccc(C[C@H](NC(=O)c3cc(F)c(NS(=O)(=O)c4ccc(NC(=O)C(C)(C)C)cc4)cc3F)C(=O)O)cn2)c1=O [Compound A53]
25 | 5.8 nM | Cn1cnc2c1c(=O)n(-c1ccc(C[C@H](NC(=O)c3cc(F)c(NS(=O)(=O)c4ccc(NC(=O)C(C)(C)C)cc4)cc3F)C(=O)O)cc1)c(=O)n2C [Compound A43]
26 | 4.6 nM | Cc1c(C)n(C)c(=O)n(-c2ccc(C[C@H](NC(=O)c3cc(F)c(NS(=O)(=O)c4ccc(NC(=O)C(C)(C)C)cn4)cc3F)C(=O)O)cc2)c1=O [Compound A19]
27 | 4.5 nM | Cn1c(=O)n(-c2ccc(C[C@H](NC(=O)c3cc(F)c(NS(=O)(=O)c4ccc(NC(=O)C(C)(C)C)s4)cc3F)C(=O)O)cc2)c(=O)c2ccncc21 [Compound A9]
28 | 1.9 nM | CN1CCc2c(n(C)c(=O)n(-c3ccc(C[C@H](NC(=O)c4cc(F)c(NS(=O)(=O)c5ccc(NC(=O)C(C)(C)C)cc5)cc4F)C(=O)O)cc3)c2=O)C1 [Compound A41]
